Tests used:
HDACs 1-10 = experiment: HDAC enzyme assay in vitro, purified HDAC 1-10 isoforms; settings: positive control
HD-LM2 cells = experiment: Apoptosis by annexin-V/propidium iodide FACS, HD-LM2; format: cell-based, human; settings: 1 μmol/l, 48 h
L428 cells = experiment: Apoptosis by annexin-V/propidium iodide FACS, L428; format: cell-based, human; settings: 1 μmol/l, 48 h
KM-H2 cells = experiment: Apoptosis by annexin-V/propidium iodide FACS, KM-H2; format: cell-based, human; settings: 1 μmol/l, 48 h
human HDAC8 = molecular target: T1, human HDAC8 (Homo sapiens, UniProt Q9BY41); experiment: HDAC enzyme assay in vitro, HDAC8; settings: cell-free, purified enzyme
T1 sequence (Q9BY41 1-377): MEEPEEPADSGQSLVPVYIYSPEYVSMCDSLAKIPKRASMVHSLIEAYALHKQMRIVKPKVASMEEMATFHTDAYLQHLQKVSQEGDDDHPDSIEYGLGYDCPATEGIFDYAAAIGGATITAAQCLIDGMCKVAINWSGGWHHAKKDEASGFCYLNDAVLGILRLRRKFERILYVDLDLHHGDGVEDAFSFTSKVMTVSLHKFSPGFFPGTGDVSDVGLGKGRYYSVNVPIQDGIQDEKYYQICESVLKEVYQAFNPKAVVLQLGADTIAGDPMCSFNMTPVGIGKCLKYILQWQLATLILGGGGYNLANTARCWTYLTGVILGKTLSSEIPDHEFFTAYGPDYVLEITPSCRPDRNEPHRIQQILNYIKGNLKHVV

[1] = molecular target: human HDAC3 with human NcoR2 (Homo sapiens, UniProt O15379); experiment: HDAC enzyme assay in vitro, HDAC3; settings: cell-free, purified enzyme
NF-kB = experiment: p65 NF-kB nuclear translocation by Western blot; format: cell-based, human; settings: bortezomib 20 nmol/l with MGCD0103 1 μmol/l, 24 h
HL cell lines = experiment: Combination of MGCD0103 with proteasome inhibitors in HL cell lines; format: cell-based, human; settings: 48 h, combination index <1 indicates synergy
human HDAC6 = molecular target: T2, human HDAC6 (Homo sapiens, UniProt Q9UBN7); experiment: HDAC enzyme assay in vitro, HDAC6; format: biochemical; settings: cell-free, purified enzyme; Fig S1
T2 sequence (Q9UBN7 1-1215): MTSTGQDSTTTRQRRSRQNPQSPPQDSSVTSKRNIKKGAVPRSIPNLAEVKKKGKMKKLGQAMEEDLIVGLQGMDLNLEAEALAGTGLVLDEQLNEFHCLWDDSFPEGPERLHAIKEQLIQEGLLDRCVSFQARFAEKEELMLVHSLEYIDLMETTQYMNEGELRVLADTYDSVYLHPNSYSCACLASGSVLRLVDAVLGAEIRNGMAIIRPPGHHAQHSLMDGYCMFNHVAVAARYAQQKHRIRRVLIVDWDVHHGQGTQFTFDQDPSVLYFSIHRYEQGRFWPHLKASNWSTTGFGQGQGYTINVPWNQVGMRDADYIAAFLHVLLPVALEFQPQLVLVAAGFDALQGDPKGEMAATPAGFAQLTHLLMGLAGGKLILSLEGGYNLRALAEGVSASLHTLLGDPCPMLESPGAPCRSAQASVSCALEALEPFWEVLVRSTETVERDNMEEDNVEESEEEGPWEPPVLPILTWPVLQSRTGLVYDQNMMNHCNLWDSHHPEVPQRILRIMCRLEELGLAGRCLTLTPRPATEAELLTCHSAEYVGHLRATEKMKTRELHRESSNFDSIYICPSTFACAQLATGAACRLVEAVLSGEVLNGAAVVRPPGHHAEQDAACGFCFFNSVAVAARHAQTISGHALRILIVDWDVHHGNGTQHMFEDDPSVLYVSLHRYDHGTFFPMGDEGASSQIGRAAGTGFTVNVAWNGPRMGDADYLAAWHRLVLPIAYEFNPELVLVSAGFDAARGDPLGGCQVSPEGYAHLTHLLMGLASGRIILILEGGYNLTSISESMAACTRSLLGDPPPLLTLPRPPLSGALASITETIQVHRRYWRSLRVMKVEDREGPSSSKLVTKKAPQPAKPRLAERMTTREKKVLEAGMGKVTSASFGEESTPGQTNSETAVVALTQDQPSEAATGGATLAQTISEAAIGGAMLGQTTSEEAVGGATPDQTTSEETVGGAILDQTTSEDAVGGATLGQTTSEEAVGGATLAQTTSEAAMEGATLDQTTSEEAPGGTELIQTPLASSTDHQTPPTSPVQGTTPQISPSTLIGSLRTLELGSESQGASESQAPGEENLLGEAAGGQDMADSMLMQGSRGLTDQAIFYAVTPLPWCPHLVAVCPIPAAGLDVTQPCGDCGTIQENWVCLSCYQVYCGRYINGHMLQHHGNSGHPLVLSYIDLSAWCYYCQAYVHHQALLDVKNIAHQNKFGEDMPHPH

TNF-α = TNF-α secretion in HL cell supernatants by ELISA; format: cell-based, human; settings: within 24 h of incubation
HDAC6 = settings: ref Fournel et al, 2008; Gloghini et al, 2009; cited from earlier work

human HDAC3 with human NcoR2, sequence (O15379 whole entry): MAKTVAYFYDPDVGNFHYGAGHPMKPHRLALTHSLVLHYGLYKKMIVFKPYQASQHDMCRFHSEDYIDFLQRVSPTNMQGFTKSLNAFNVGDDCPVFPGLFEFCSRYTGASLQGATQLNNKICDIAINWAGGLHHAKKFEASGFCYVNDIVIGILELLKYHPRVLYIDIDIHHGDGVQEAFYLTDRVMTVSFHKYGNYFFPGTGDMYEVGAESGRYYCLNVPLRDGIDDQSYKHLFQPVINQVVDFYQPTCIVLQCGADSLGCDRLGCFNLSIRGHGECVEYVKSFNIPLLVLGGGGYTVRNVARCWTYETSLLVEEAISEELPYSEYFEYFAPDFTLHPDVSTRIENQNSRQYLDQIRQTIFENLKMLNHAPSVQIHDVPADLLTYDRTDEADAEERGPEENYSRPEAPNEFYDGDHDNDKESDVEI
human HDAC3 with human NcoR2, sequence (Q9Y618 395-489 partner limits assumed): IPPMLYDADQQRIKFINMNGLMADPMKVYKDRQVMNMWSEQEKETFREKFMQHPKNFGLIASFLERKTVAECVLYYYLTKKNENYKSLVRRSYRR

| Compound | percentage of apoptotic cells (HD-LM2 cells) | percentage of apoptotic cells (L428 cells) | percentage of apoptotic cells (KM-H2 cells) | inhibition of HDAC8 activity (human HDAC8) | combination effect with MGCD0103 (HL cell lines) | further results |
| --- | --- | --- | --- | --- | --- | --- |
| Trichostatin A [Trichostatin-A] | – | – | – | – | – | potency against HDACs 1-10 compared with MGCD0103 and vorinostat (HDACs 1-10): higher potency |
| O=C(CCCCCCC(=O)Nc1ccccc1)NO [vorinostat, suberoylanilide hydroxamic] | 21% | 15% | 13.8% | had activity | – | inhibition of HDAC3 activity [1]: had activity |
| CC(C)C[C@H](NC(=O)[C@H](Cc1ccccc1)NC(=O)c1cnccn1)B(O)O [bortezomib] | – | – | – | – | synergistic antiproliferative effect | effect on MGCD0103-induced NF-kB activation (NF-kB): inhibited MGCD0103-induced NF-kB activation |
| Nc1ccccc1NC(=O)c1ccc(CNc2nccc(-c3cccnc3)n2)cc1 [MGCD0103] | 59% | 72% | 69% | also inhibited the activity | – | effect on HDAC6 activity (human HDAC6): no effect; TNF-α levels in supernatants (TNF-α): profoundly increased; effect on HDAC6 (HDAC6): no effect |
| C[C@@]12OC(=O)[C@]1([C@@H](O)[C@@H]1C=CCCC1)NC(=O)[C@@H]2CCCl [NPI0052] | – | – | – | – | synergistic activity | – |
